PubChem BioAssay AID1963446 (Molecular Pharmacology Branch, DTP, NCI, 2024)
pIC50: −log10 of the molar value.

Test system: 993429-296-R-J1-PDC complex spheroid growth, percent test/control
Test: Anticancer human tumor 993429-296-R-J1-PDC patient-derived uterine sarcoma cell line growth inhibition [Asc]
Details: for pIC50: curve of first compound; for viability, T/C: stronger effect = lower value
How it was run: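 Tumor cells were grown as multicellular spheroids with stromal HUVEC and mesenchymal stem cells and treated singly or in combination. Concentrations fell in half-log steps from the clinical Cmax, or from 10 microM where none was known.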

[1] = second compound 0.1 µM, first compound 0.00316 µM
[2] = second compound 0.1 µM, first compound 0.01 µM
[3] = second compound 0.1 µM, first compound 0.0316 µM
[4] = second compound 0.1 µM, first compound 0.1 µM
[5] = second compound 0.316 µM, first compound 0.00316 µM
[6] = second compound 0.316 µM, first compound 0.01 µM
[7] = second compound 0.316 µM, first compound 0.0316 µM
[8] = second compound 0.316 µM, first compound 0.1 µM
[9] = second compound 1 µM, first compound 0.00316 µM
[10] = second compound 1 µM, first compound 0.01 µM
[11] = second compound 1 µM, first compound 0.0316 µM
[12] = second compound 1 µM, first compound 0.1 µM
[13] = second compound 3.16 µM, first compound 0.00316 µM
[14] = second compound 3.16 µM, first compound 0.01 µM
[15] = second compound 3.16 µM, first compound 0.0316 µM
[16] = second compound 3.16 µM, first compound 0.1 µM
[17] = second compound 10 µM, first compound 0.00316 µM
[18] = second compound 10 µM, first compound 0.01 µM
[19] = second compound 10 µM, first compound 0.0316 µM
[20] = second compound 10 µM, first compound 0.1 µM
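Also: spheroids exposed to compounds for seven days.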

CCN1CCN(Cc2ccc(Nc3ncc(F)c(-c4cc(F)c5nc(C)n(C(C)C)c5c4)n3)nc2)CC1 + Cc1c(S(C)(=O)=O)c(-c2cc(F)cc(N3CCN(c4ccc(NS(=O)(=O)c5ccc(NC(CCN6CCC(C(=O)OCCCP(=O)(O)O)CC6)CSc6ccccc6)c(S(=O)(=O)C(F)(F)F)c5)cc4)CC3)c2)c(-c2ccc(Cl)cc2)n1C(C)C was tested. Which pIC50 (second compound 0.1 µM) did it give?
The pIC50 was < 6.00.

What about the pIC50 (second compound 0.316 µM) of the same molecule?
Its pIC50 is 6.07.

What about the pIC50 (second compound 1 µM) of the same molecule?
The pIC50 was 6.46.

And the pIC50 (second compound 3.16 µM)?
The pIC50 was > 8.50.

What about the pIC50 (second compound 10 µM) of the same molecule?
The pIC50 was 6.33.

What about the viability, T/C [1] of the same molecule?
The viability, T/C was 70.2%.

And the viability, T/C [2]?
Its viability, T/C is 81.9%.

What about the viability, T/C [3] of the same molecule?
The viability, T/C was 64.3%.

And the viability, T/C [4]?
Its viability, T/C is 60.6%.

And the viability, T/C (second compound 0.1 µM, first compound 0.316 µM)?
Its viability, T/C is 85%.

What about the viability, T/C (second compound 0.1 µM, first compound 1 µM) of the same molecule?
Its viability, T/C is 50.7%.

What about the viability, T/C [5] of the same molecule?
Its viability, T/C is 54.2%.

And the viability, T/C [6]?
Its viability, T/C is 55.5%.

What about the viability, T/C [7] of the same molecule?
The viability, T/C was 63.5%.

And the viability, T/C [8]?
The viability, T/C was 64.7%.

And the viability, T/C (second compound 0.316 µM, first compound 0.316 µM)?
Its viability, T/C is 64.3%.

What about the viability, T/C (second compound 0.316 µM, first compound 1 µM) of the same molecule?
The viability, T/C was 32.5%.

And the viability, T/C [9]?
Its viability, T/C is 48.1%.

What about the viability, T/C [10] of the same molecule?
The viability, T/C was 52.4%.

What about the viability, T/C [11] of the same molecule?
Its viability, T/C is 49.5%.

And the viability, T/C [12]?
The viability, T/C was 58.7%.

What about the viability, T/C (second compound 1 µM, first compound 0.316 µM) of the same molecule?
The viability, T/C was 55%.

What about the viability, T/C (second compound 1 µM, first compound 1 µM) of the same molecule?
The viability, T/C was 16.5%.

What about the viability, T/C [13] of the same molecule?
Its viability, T/C is 37.3%.

And the viability, T/C [14]?
Its viability, T/C is 45.3%.

What about the viability, T/C [15] of the same molecule?
Its viability, T/C is 46.6%.

And the viability, T/C [16]?
Its viability, T/C is 41.8%.

And the viability, T/C (second compound 3.16 µM, first compound 0.316 µM)?
The viability, T/C was 38.7%.

What about the viability, T/C (second compound 3.16 µM, first compound 1 µM) of the same molecule?
The viability, T/C was 16.2%.

And the viability, T/C [17]?
The viability, T/C was 70.5%.

And the viability, T/C [18]?
The viability, T/C was 67.4%.

And the viability, T/C [19]?
The viability, T/C was 71.2%.

And the viability, T/C [20]?
Its viability, T/C is 76.9%.

What about the viability, T/C (second compound 10 µM, first compound 0.316 µM) of the same molecule?
The viability, T/C was 67.4%.

What about the viability, T/C (second compound 10 µM, first compound 1 µM) of the same molecule?
Its viability, T/C is 14%.

With Cn1ncnc1[C@H]1c2n[nH]c(=O)c3cc(F)cc(c23)N[C@@H]1c1ccc(F)cc1 + Cc1c(S(C)(=O)=O)c(-c2cc(F)cc(N3CCN(c4ccc(NS(=O)(=O)c5ccc(NC(CCN6CCC(C(=O)OCCCP(=O)(O)O)CC6)CSc6ccccc6)c(S(=O)(=O)C(F)(F)F)c5)cc4)CC3)c2)c(-c2ccc(Cl)cc2)n1C(C)C as the molecule, how does the pIC50 (second compound 0.1 µM) read?
Its pIC50 is 8.01.

And the pIC50 (second compound 0.316 µM)?
The pIC50 was 8.33.

And the pIC50 (second compound 1 µM)?
Its pIC50 is 8.42.

What about the pIC50 (second compound 3.16 µM) of the same molecule?
The pIC50 was 9.00.

What about the pIC50 (second compound 10 µM) of the same molecule?
The pIC50 was 8.00.

What about the viability, T/C (second compound 0.1 µM, first compound 0.000316 µM) of the same molecule?
Its viability, T/C is 66.9%.

And the viability, T/C (second compound 0.1 µM, first compound 0.001 µM)?
The viability, T/C was 70.1%.

What about the viability, T/C [1] of the same molecule?
The viability, T/C was 64.5%.

And the viability, T/C [2]?
The viability, T/C was 46.7%.

And the viability, T/C [3]?
The viability, T/C was 34.1%.

What about the viability, T/C [4] of the same molecule?
Its viability, T/C is 18.5%.

And the viability, T/C (second compound 0.316 µM, first compound 0.000316 µM)?
Its viability, T/C is 62.6%.

And the viability, T/C (second compound 0.316 µM, first compound 0.001 µM)?
Its viability, T/C is 73.7%.

What about the viability, T/C [5] of the same molecule?
The viability, T/C was 50.3%.

And the viability, T/C [6]?
The viability, T/C was 37.3%.

What about the viability, T/C [7] of the same molecule?
The viability, T/C was 33.3%.

And the viability, T/C [8]?
Its viability, T/C is 14.2%.

What about the viability, T/C (second compound 1 µM, first compound 0.000316 µM) of the same molecule?
The viability, T/C was 68.8%.

And the viability, T/C (second compound 1 µM, first compound 0.001 µM)?
The viability, T/C was 68.5%.

What about the viability, T/C [9] of the same molecule?
Its viability, T/C is 50.1%.

And the viability, T/C [10]?
The viability, T/C was 35.8%.

And the viability, T/C [11]?
The viability, T/C was 22.7%.

And the viability, T/C [12]?
The viability, T/C was 10.6%.

What about the viability, T/C (second compound 3.16 µM, first compound 0.000316 µM) of the same molecule?
Its viability, T/C is 52.8%.

And the viability, T/C (second compound 3.16 µM, first compound 0.001 µM)?
Its viability, T/C is 48.5%.

What about the viability, T/C [13] of the same molecule?
Its viability, T/C is 44.3%.

What about the viability, T/C [14] of the same molecule?
The viability, T/C was 28.9%.

What about the viability, T/C [15] of the same molecule?
Its viability, T/C is 9.8%.

And the viability, T/C [16]?
Its viability, T/C is 10.8%.

What about the viability, T/C (second compound 10 µM, first compound 0.000316 µM) of the same molecule?
Its viability, T/C is 103%.

What about the viability, T/C (second compound 10 µM, first compound 0.001 µM) of the same molecule?
The viability, T/C was 81%.

What about the viability, T/C [17] of the same molecule?
Its viability, T/C is 93.3%.

What about the viability, T/C [18] of the same molecule?
Its viability, T/C is 50.1%.

And the viability, T/C [19]?
The viability, T/C was 12.4%.

What about the viability, T/C [20] of the same molecule?
The viability, T/C was 9.31%.
